According to publication PMC12951568, “Identifying Structural Factors Governing the Photodynamic Activity of Phthalocyanines” (Journal of Medicinal Chemistry, 2026):
Values joined by “and” are separate entries in the source; they are usually repeats but may differ in a detail not shown here. Equal entries are not always repeated. Where two headings read alike, the source gives them in different places.

Experiments:
[1] = biological target: bovine serum albumin (BSA) (Bos taurus, UniProt P02769); assay: Interaction with bovine serum albumin (absorption and emission spectra in PBS); assay type: binding; details: 1 μM Pc in PBS, BSA 17.5, 35 and 100 μM
[2] = system: MCF-7 (human breast adenocarcinoma); parameters: method as in number not printed in Table 2; details: 12 h incubation, Xe-lamp 15 min, λ > 570 nm, 11.2 J/cm^2; mean ± SD; determined previously under the same conditions at the same workplace and published; ref number not given; cited from earlier work
[3] = Aggregation / monomerization in aqueous media (spectra in water and PBS); assay type: physicochemical; details: 1 μM
Procedure: (§1) An absorption spectrum of 2.475 mL of solvent (water, DMF, or PBS) was taken (i.e., absorption spectrum of baseline); then, 25 μL of stock solution was added to reach the final concentration of 1 μM in the cuvette, and the absorption and emission spectra were taken. Baseline of the solvent was subtracted from the obtained absorption spectrum to get the final absorption spectrum of the sample.

[4] = Log P, partition between n-octanol and PBS; assay type: physicochemical; details: partition coefficient between 1-octanol and PBS
Outline: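 Sample from 100 μM stock added to equal volumes of n-octanol and PBS, vortexed 5 min at rt, centrifuged. Each layer diluted into DMF and emission spectra recorded; log P taken as log of octanol/PBS integrated fluorescence ratio, mean of triplicates.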

[5] = system: SK-MEL-28 (human skin melanoma); assay: Photodynamic activity (phototoxicity, neutral red uptake) on SK-MEL-28; assay type: cell-based; details: 12 h incubation, Xe-lamp 15 min, λ > 570 nm, 11.2 J/cm^2; mean ± SD; t.w. = this work
[6] = system: HeLa (human cervical carcinoma); assay: Photodynamic activity (phototoxicity, neutral red uptake) on HeLa; assay type: cell-based; details: HeLa; unsymmetrical anionic A1Zn, A2Zn vs A3Zn, A4Zn
[7] = system: HeLa (human cervical carcinoma); details: ref number not given, cited from earlier work
[8] = Quantum yield of singlet oxygen production, comparative method with DPBF scavenger; assay type: physicochemical; details: in DMF, ZnPc as reference
Outline: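 Dye added from 100 μM DMF stock (or DMF/water, water); irradiated under stirring with xenon lamp through water filter and OG530 cut-off (>523 nm). DPBF decay followed at 415 nm; ΦΔ from ln(A0/At) slopes versus reference, normalised to absorbed light summed over 523–850 nm; triplicate means, ±10% error.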

[9] = Absorption and fluorescence emission spectra in DMF; assay type: physicochemical; details: in DMF
Procedure: as §1

[10] = Fluorescence quantum yield, comparative method; assay type: physicochemical; details: in DMF; ZnPc as reference
Outline: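 ΦF determined by the comparative method against ZnPc (ΦF 0.32 in THF), using integrated emission area, absorbance at the excitation wavelength and solvent refractive index. Q-band absorbance kept below 0.05; estimated error ± 15%.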

[11] = Fluorescence lifetime in DMF; assay type: physicochemical
Excerpt: 1 Photophysical Data of Investigated Derivatives in DMF ^a | column: τF1/ns; τF2/ns

[12] = cited from earlier work; for ΦF, fluorescence quantum yield of nonionized analogue: determined for nonionized analogues containing free carboxylic acid, ref number not given (footnote b)
[13] = cited from earlier work; for ΦΔ, quantum yield of singlet oxygen production of nonionized analogue: determined for nonionized analogues containing free carboxylic acid, ref number not given (footnote b)
[14] = system: SK-MEL-28 (human skin melanoma); parameters: method as in number not printed in Table 2; details: 12 h incubation, Xe-lamp 15 min, λ > 570 nm, 11.2 J/cm^2; mean ± SD; determined previously under the same conditions at the same workplace and published; ref number not given; cited from earlier work
[15] = 12 h incubation, Xe-lamp 15 min, λ > 570 nm, 11.2 J/cm^2, mean ± SD, determined previously under the same conditions at the same workplace and published, read-out: EC50 (nM) HeLa

Chain of bovine serum albumin (BSA) (P02769 25-607): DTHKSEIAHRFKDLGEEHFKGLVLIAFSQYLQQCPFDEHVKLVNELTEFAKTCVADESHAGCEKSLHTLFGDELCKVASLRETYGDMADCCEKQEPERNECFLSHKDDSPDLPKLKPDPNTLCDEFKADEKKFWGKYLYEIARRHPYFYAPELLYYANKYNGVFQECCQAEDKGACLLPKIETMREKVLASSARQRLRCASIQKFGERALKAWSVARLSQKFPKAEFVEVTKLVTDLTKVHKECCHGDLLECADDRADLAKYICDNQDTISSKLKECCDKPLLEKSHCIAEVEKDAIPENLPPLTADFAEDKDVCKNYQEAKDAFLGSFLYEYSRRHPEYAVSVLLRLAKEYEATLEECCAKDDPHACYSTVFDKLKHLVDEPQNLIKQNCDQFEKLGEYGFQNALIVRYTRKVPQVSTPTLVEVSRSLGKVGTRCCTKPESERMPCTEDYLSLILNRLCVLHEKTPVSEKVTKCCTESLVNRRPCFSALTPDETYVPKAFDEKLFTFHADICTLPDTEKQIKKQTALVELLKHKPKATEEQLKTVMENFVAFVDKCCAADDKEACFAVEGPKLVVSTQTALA

| SMILES | Interaction with BSA: disaggregation/monomerization and changes in absorption and fluorescence emission spectra [1] | EC50 [2] | aggregation / monomeric state [3] | Log P [4] | EC50 [7, 15] | ΦΔ, quantum yield of singlet oxygen production [8] | ε, extinction coefficient [9] | λA, absorption maximum in the Q-band [9] | λF, fluorescence emission maximum [9] | ΦF, fluorescence quantum yield [10] | ΦF, fluorescence quantum yield of nonionized analogue [12] | ΦΔ, quantum yield of singlet oxygen production of nonionized analogue [13] | also measured |
| --- | --- | --- | --- | --- | --- | --- | --- | --- | --- | --- | --- | --- | --- |
| O=C([O-])c1cc(C(=O)[O-])cc(-c2cc3c(cc2-c2cc(C(=O)[O-])cc(C(=O)[O-])c2)C2=Nc4c5ccccc5c5[n]4[Zn][n]4c(c6ccccc6c4=NC3=N2)=NC2=NC(=N5)c3ccccc32)c1.[Na+].[Na+].[Na+].[Na+] [A2Zn] | partial | 584 ± 88 nM | aggregated in water | –2.42 | 410 ± 156 nM | 0.22 | 152 090 M^–1cm^–1 | 677 nm | 688 nm | 0.02 | – | – | EC50 [5]: 700 ± 50 nM; fold higher photodynamic activity vs symmetrical hydrophilic counterparts [6]: 25 and ~21; τF1, fluorescence lifetime (relative amplitude in brackets) [11]: 0.23 (16%) ns; τF2, fluorescence lifetime (relative amplitude in brackets) [11]: 2.66 (84%) ns |
| [Zn+2].c1ccc2c(c1)-c1nc-2nc2[n-]c(nc3nc([n-]c4nc(n1)-c1ccccc1-4)-c1ccccc1-3)c1ccccc21 [ZnPc, unsubstituted zinc(II) phthalocyanine, reference compound] | – | – | – | – | – | – | – | – | – | – | – | – | ΦF of the reference standard ([12]; in THF, ref number not given): 0.32; ΦΔ of the reference standard ([13]; in DMF, ref number not given): 0.56 |
| O=C(O)c1cc(C(=O)O)cc(-c2cc3c(cc2-c2cc(C(=O)O)cc(C(=O)O)c2)C2=Nc4c5cc(-c6cc(C(=O)O)cc(C(=O)O)c6)c(-c6cc(C(=O)O)cc(C(=O)O)c6)cc5c5[n]4[Zn][n]4c(c6cc(-c7cc(C(=O)O)cc(C(=O)O)c7)c(-c7cc(C(=O)O)cc(C(=O)O)c7)cc6c4=NC4=NC(=N5)c5cc(-c6cc(C(=O)O)cc(C(=O)O)c6)c(-c6cc(C(=O)O)cc(C(=O)O)c6)cc54)=NC3=N2)c1 [A4Zn(COOH)] | – | – | – | – | – | – | – | – | – | – | 0.12 | 0.45 | – |
| O=C(O)c1cc(Oc2cc3c(cc2Oc2cc(C(=O)O)cc(C(=O)O)c2)C2=Nc4c5cc(Oc6cc(C(=O)O)cc(C(=O)O)c6)c(Oc6cc(C(=O)O)cc(C(=O)O)c6)cc5c5[n]4[Zn][n]4c(c6cc(Oc7cc(C(=O)O)cc(C(=O)O)c7)c(Oc7cc(C(=O)O)cc(C(=O)O)c7)cc6c4=NC4=NC(=N5)c5cc(Oc6cc(C(=O)O)cc(C(=O)O)c6)c(Oc6cc(C(=O)O)cc(C(=O)O)c6)cc54)=NC3=N2)cc(C(=O)O)c1 [A3Zn(COOH)] | – | – | – | – | – | – | – | – | – | – | 0.19 | 0.42 | – |
| O=C([O-])c1cc(C(=O)[O-])cc(-c2cc3c(cc2-c2cc(C(=O)[O-])cc(C(=O)[O-])c2)C2=Nc4c5cc(-c6cc(C(=O)[O-])cc(C(=O)[O-])c6)c(-c6cc(C(=O)[O-])cc(C(=O)[O-])c6)cc5c5[n]4[Zn][n]4c(c6cc(-c7cc(C(=O)[O-])cc(C(=O)[O-])c7)c(-c7cc(C(=O)[O-])cc(C(=O)[O-])c7)cc6c4=NC4=NC(=N5)c5cc(-c6cc(C(=O)[O-])cc(C(=O)[O-])c6)c(-c6cc(C(=O)[O-])cc(C(=O)[O-])c6)cc54)=NC3=N2)c1.[Na+].[Na+].[Na+].[Na+].[Na+].[Na+].[Na+].[Na+].[Na+].[Na+].[Na+].[Na+].[Na+].[Na+].[Na+].[Na+] [A4Zn] | slight bathochromic shift in the Q-band accompanied by partial quenching of the excited states | 5090 ± 1240 nM | monomeric in water | –3.32 | – | – | 168 630 M^–1cm^–1 | 694 nm | 708 nm | 0.01 | 0.12 | 0.45 (0.45) ^b | quenching of excited states upon BSA addition (decrease in Q-band maximum and fluorescence intensity) [1]: negligible; EC50 ([7]; same irradiation conditions, previously published per Table 2, read-out: EC50 (HeLa)): 10300 nM |
| O=C([O-])c1cc(Oc2cc3c(cc2Oc2cc(C(=O)[O-])cc(C(=O)[O-])c2)C2=Nc4c5cc(Oc6cc(C(=O)[O-])cc(C(=O)[O-])c6)c(Oc6cc(C(=O)[O-])cc(C(=O)[O-])c6)cc5c5[n]4[Zn][n]4c(c6cc(Oc7cc(C(=O)[O-])cc(C(=O)[O-])c7)c(Oc7cc(C(=O)[O-])cc(C(=O)[O-])c7)cc6c4=NC4=NC(=N5)c5cc(Oc6cc(C(=O)[O-])cc(C(=O)[O-])c6)c(Oc6cc(C(=O)[O-])cc(C(=O)[O-])c6)cc54)=NC3=N2)cc(C(=O)[O-])c1.[Na+].[Na+].[Na+].[Na+].[Na+].[Na+].[Na+].[Na+].[Na+].[Na+].[Na+].[Na+].[Na+].[Na+].[Na+].[Na+] [A3Zn] | slight bathochromic shift in the Q-band accompanied by partial quenching of the excited states | 3470 ± 670 nM | – | –2.88 | 5160 ± 1030 nM | 0.24 | 172 640 M^–1cm^–1 | 677 nm | 688 nm | 0.03 | 0.19 | 0.42 | quenching of excited states upon BSA addition (decrease in Q-band maximum and fluorescence intensity) [1]: negligible |
| Cc1cc(OCc2cn(CCO[C@@H]3O[C@H](CO)[C@@H](O)[C@H](O)[C@H]3O)nn2)c(Oc2cc3c(cc2Oc2c(OCc4cn(CCO[C@@H]5O[C@H](CO)[C@@H](O)[C@H](O)[C@H]5O)nn4)cc(C)cc2OCc2cn(CCO[C@@H]4O[C@H](CO)[C@@H](O)[C@H](O)[C@H]4O)nn2)C2=Nc4c5ccccc5c5[n]4[Zn][n]4c(c6ccccc6c4=NC3=N2)=NC2=NC(=N5)c3ccccc32)c(OCc2cn(CCO[C@@H]3O[C@H](CO)[C@@H](O)[C@H](O)[C@H]3O)nn2)c1 [N4Zn] | – | 1200 ± 100 nM | – | –0.65 | 2070 ± 60 nM | 0.59 | 293 750 M^–1cm^–1 | 672 nm | 681 nm | 0.29 | – | – | EC50 [14]: 500 ± 100 nM |
| Cc1cc(Cn2cc[n+](C)c2)c(Oc2c3c(c(C)c(C)[n+]2C)C2=NC3=Nc3c4ccccc4c4[n]3[Zn][n]3c(c5ccccc5c3=N2)=NC2=NC(=N4)c3ccccc32)c(Cn2cc[n+](C)c2)c1.[I-].[I-].[I-] [C1Zn] | – | 35 ± 2 nM | monomeric in DMF but are aggregated in PBS | 0.53 | 27 ± 9 nM | 0.66 | 100 240 M^–1cm^–1 | 689 nm | 696 nm | 0.15 | – | – | EC50 [5]: 22 ± 3 nM |
| Cc1cc(OCc2cn(CCOCCOCCO)nn2)c(Oc2cc3c(cc2Oc2c(OCc4cn(CCOCCOCCO)nn4)cc(C)cc2OCc2cn(CCOCCOCCO)nn2)C2=Nc4c5ccccc5c5[n]4[Zn][n]4c(c6ccccc6c4=NC3=N2)=NC2=NC(=N5)c3ccccc32)c(OCc2cn(CCOCCOCCO)nn2)c1 [N3Zn] | – | 1500 ± 300 nM | – | 1.90 | 2200 ± 160 nM | 0.48 | 280 340 M^–1cm^–1 | 672 nm | 681 nm | 0.28 | – | – | EC50 [14]: 900 ± 200 nM |
